Data on 1 compound can be found in article PMC6691016, “Glycosylation influences activity, stability and immobilization of the feruloyl esterase 1a from Myceliophthora thermophila” (AMB Express, 2019).

The target in assay [1] is T1, M-Fae (MtFae1a produced in M. thermophila) (Thermothelomyces thermophilus, UniProt G2QND5).
T1 construct: gene Fae1a; mature (signal peptide, first 18 residues, removed); homologous over-production in M. thermophila C1; no tag stated; N-glycosylated at Asn117 and Asn179; calculated MW 29506 Da, 31 kDa on SDS-PAGE; homodimer only predicted
The experiment in a line: continuous absorbance assay at […] nm, non-linear regression. Type of assay: biochemical. The conditions noted are these: substrate inhibition constant; free enzyme, 100 mM sodium phosphate pH 7.0, 35 °C; 5% DMSO.

Assay [2] addresses T2, P-Fae (MtFae1a produced in P. pastoris) (Thermothelomyces thermophilus, UniProt G2QND5).
T2 construct: gene Fae1a; mature (signal peptide, first 18 residues, removed); secreted from Pichia pastoris GS115 (vector pPNic706); no tag stated; N-glycosylated at Asn117 and Asn179 with larger glycans; calculated MW 29506 Da, 33 kDa on SDS-PAGE; homodimer only predicted
The assay is described as above. Type of assay: biochemical. The note with it: substrate inhibition constant; free enzyme, 100 mM sodium phosphate pH 7.0, 35 °C; 5% DMSO.

T2 sequence (G2QND5 19-291): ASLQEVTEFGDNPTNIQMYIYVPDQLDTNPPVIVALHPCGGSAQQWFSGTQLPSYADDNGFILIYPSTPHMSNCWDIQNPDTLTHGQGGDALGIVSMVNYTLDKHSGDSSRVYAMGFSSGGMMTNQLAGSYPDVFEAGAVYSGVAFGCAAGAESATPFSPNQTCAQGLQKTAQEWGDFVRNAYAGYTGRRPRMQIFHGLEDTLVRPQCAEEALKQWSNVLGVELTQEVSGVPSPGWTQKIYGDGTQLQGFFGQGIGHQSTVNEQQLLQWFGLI
T1 sequence (G2QND5 19-291): as above

In the case of `COC(=O)/C=C/c1ccc(O)cc1` [MpCA, methyl p-coumarate], the “Ksi” value in assay [1] is reported as 1.46 ± 0.29 mM; in assay [2], 1.84 ± 0.28 mM.
